The values that follow come from patent publication US20140328814A1, “ANTIMICROBIAL AND […] PROBIOTIC COMPOSITION, FOOD PRODUCT AND DIETARY SUPPLEMENT COMPRISING MICROORGANISM STRAIN LACTOBACILLUS […] TENSIA DSM 21380 AND METHOD FOR SUPPRESSING CONTAMINATING MICROBES IN A FOOD PRODUCT” (Oü Tervisliku Piima Biotehnoloogiate Arenduskeskus …, priority 2008, published 2014).

For experiment [1], the system named is Lactobacillus plantarum Tensia DSM 21380. Briefly: Antibiotic resistance, E-test MIC. The class given is cell-based. The conditions noted are these: E-test strips. As for the experimental part: Method. Lactobacillus plantarum Tensia DSM 21380 was tested using antibiotic strips of the E-test (AB Biodisk, Solna).
The subject of a further experiment is L. plantarum DSM 21379. Briefly: Antibiotic resistance, E-test MIC, control strain. The conditions noted are these: E-test strips. The class given is cell-based, Lactobacillus plantarum.

In brackets after ≈: the same amount, converted by molar mass.

In the case of `CC[C@H]1OC(=O)[C@H](C)[C@@H](O[C@H]2C[C@@](C)(OC)[C@@H](O)[C@H](C)O2)[C@H](C)[C@@H](O[C@@H]2O[C@H](C)C[C@H](N(C)C)[C@H]2O)[C@](C)(O)C[C@@H](C)C(=O)[C@H](C)[C@@H](O)[C@]1(C)O` [Erytromycin], the “MIC L. plantarum Tensia DSM 21380” value in experiment [1] stood at 0.19 µg/mL (≈ 0.259 µM). Besides, the “MIC Control strain L. plantarum DSM 21379” value against L. plantarum DSM 21379 was 0.25 µg/mL (≈ 0.341 µM).
With Cipro/ofloxacin, the “MIC L. plantarum Tensia DSM 21380” value in experiment [1] was determined as 32 µg/mL. For the same molecule, the “MIC Control strain L. plantarum DSM 21379” value against L. plantarum DSM 21379 came out at 32 µg/mL.
Consider Gentamicin, for which, in experiment [1], the “MIC L. plantarum Tensia DSM 21380” value came out at 1.5 µg/mL. The “MIC Control strain L. plantarum DSM 21379” value in the experiment with L. plantarum DSM 21379 was found to be 1 µg/mL.
The matching figures for Quinopristin/dalfopristin: 1 µg/mL and 1 µg/mL.
